Here are results for twelve compounds from patent US20230086303A1 (priority 2016, published 2023).

In brackets after ≈: the same amount, converted by molar mass. Starred links: 1 amine or outer side, 2 acyl side, 3 side chain; linkers in the order of their positions; H or OH if unused. Positions of bridges follow the written chain, without caps; N, C: chain ends. Non-standard residues stand in square brackets, D forms with d. Residues, ends and D or L forms follow the SMILES beside them. *: point of attachment. pTerphenylCO(4''-OnC5H11) = CCCCCOc1ccc(-c2ccc(-c3ccc(C(=O)*)cc3)cc2)cc1; Orn(4R-OH,5R-OH) = O=C([C@H](C[C@@H](O)[C@@H](O)N[*:3])N[*:1])[*:2]; hTyr(3S-OH,4S-OH) = N[C@H](C(=O)O)[C@H](O)[C@@H](O)c1ccc(O)cc1; Pro(3S-OH,4S-Me) = C[C@H]1CN[C@H](C(=O)O)[C@H]1O; Hyp = O=C(O)[C@@H]1C[C@@H](O)CN1

The nature of the first data set: Gastrointestinal related adverse events in clinical study. Conditions: 10 mg/day donepezil administered transdermally versus orally.
Experimental: The number of subjects with treatment related adverse events is assessed daily during the 36 day confinement period and for 7 visits over a 21 day wash-out period. Assessment of local skin irritation in the subjects of Arm 1 will also be assessed daily during the 36 day confinement period and for 7 visits over a 21 day wash-out period. Skin irritation is assessed using an 8 point categorical scale of no irritation; minimal erythema, barely perceptible; definite erythema readily visible; minimal edema or minimal popular response; erythema and papules; definite edema; erythema, edema and papules; vesicular eruption; strong reaction, spreading beyond application site.
Consider `COc1cc2c(cc1OC)C(=O)C(CC1CCN(Cc3ccccc3)CC1)C2` (stereo not shown) [donepezil], for which the “number of subjects experiencing diarrhea, transdermally versus orally” value is given as “two-fold lower” and the “number of subjects experiencing nausea, transdermally versus orally” value is “four-fold lower”.

Assay in the next data set: not given
Particulars: cited from earlier work.
As for `C[C@]12CC3C[C@](C)(C1)C[C@@](N)(C3)C2` [free base of memantine, 3,5-dimethyladamantan-1-amine], the water solubility was 900 µg/mL (≈ 5.02 mM).

Assay in a further data set: not given
Conditions: in vivo; cited from earlier work.
Regarding `C[C@@H]1[C@H](O)[C@@H](C)/C=C/C=C/C=C/C=C/C=C/C=C/C=C/[C@H](O[C@@H]2O[C@H](C)[C@@H](O)[C@H](N)[C@@H]2O)C[C@@H]2O[C@](O)(C[C@@H](O)C[C@@H](O)[C@H](O)CC[C@@H](O)C[C@@H](O)CC(=O)O[C@H]1C)C[C@H](O)[C@H]2C(=O)O` [amphotericin], the half-life entry is given as “greater than 48 hours”.
In the case of `CCCCCOc1ccc(-c2ccc(-c3ccc(C(=O)N[C@H]4C[C@@H](O)[C@@H](O)NC(=O)[C@@H]5[C@@H](O)[C@@H](C)CN5C(=O)[C@H]([C@@H](C)O)NC(=O)[C@H]([C@H](O)[C@@H](O)c5ccc(O)cc5)NC(=O)[C@@H]5C[C@@H](O)CN5C(=O)[C@H]([C@@H](C)O)NC4=O)cc3)cc2)cc1` [anidulafungin] ({pTerphenylCO(4''-OnC5H11)}-[Orn(4R-OH,5R-OH)]T[Hyp][hTyr(3S-OH,4S-OH)]T[Pro(3S-OH,4S-Me)]; lactam 1-C), the half-life entry is “greater than 48 hours”.
Take `NC(=O)N1c2ccccc2C=Cc2ccccc21` [carbamazepine]: the half-life entry is recorded as “greater than 48 hours”.
For `O=C1CN=C(c2ccccc2Cl)c2cc([N+](=O)[O-])ccc2N1` [clonazepam], the half-life entry was “greater than 48 hours”.
Take `CCCCCCCCc1ccc(CCC(N)(CO)CO)cc1` [fingolimod]: the half-life result was “greater than 48 hours”.
Turning to `CCC1(c2ccccc2)C(=O)NC(=O)N(C)C1=O` (stereo not shown) [mephobarbital], the half-life entry was “greater than 48 hours”.
For `CNCCC=C1c2ccccc2CCc2ccccc21` [nortriptyline], the half-life entry is given as “greater than 48 hours”.
In the case of `Cc1cc2c(s1)Nc1ccccc1N=C2N1CCN(C)CC1` [olanzapine], the half-life result is given as “greater than 48 hours”.
Consider `CCC1(c2ccccc2)C(=O)NC(=O)NC1=O` [phenobarbital], for which the half-life entry is given as “greater than 48 hours”.
Consider `CO[C@H]1C[C@@H]2CC[C@@H](C)[C@@](O)(O2)C(=O)C(=O)N2CCCC[C@H]2C(=O)O[C@H]([C@H](C)C[C@@H]2CC[C@@H](O)[C@H](OC)C2)CC(=O)[C@H](C)/C=C(\C)[C@@H](O)[C@@H](OC)C(=O)[C@H](C)C[C@H](C)/C=C/C=C/C=C/1C` [sirolimus], for which the half-life entry was “greater than 48 hours”.
